In patent US12084418B2, “Small molecule inhibitors of G(alpha)i2 protein and uses thereof” (Clark Atlanta University, Inc., priority 2020, dated 2024):
“Also recorded” adds a separate entry of the source.

What was measured:
[1] = system: PC3 cells; assay: Cell viability assay (MTS); type: cell-based, human; settings: 24 hours
[2] = system: PC3 cells; assay: Cell viability assay (MTS); type: cell-based, human; settings: compound 10 μM, 24 hours
Protocol: FIG. 3C is a graph depicting a viability study of PC3 cells treated for 24 hours with inhibitor compounds 9b, 13 and 14, at 10 μM. MTS assays were conducted for 4 hours and the results were expressed as % of viable treated cells against the control cells. Each bar represents mean±SEM (n=3).
Cell viability assays were performed using CellTiter 96® AQueous One Solution Cell Proliferation Assay (MTS) from Promega, according to the manufacture's protocol. Briefly, 5.0×10^4 cells/well were plated in a 96 well plates and incubated in a 5% CO2 environment at 37° C. overnight. After 24 hours the medium was replaced with fresh medium, containing several compounds at the appropriate concentrations. Diluted DMSO was used as a control. MTS assays were performed after 24 hours and the absorbance read at 490 nm, using a spectrophotometer.

[3] = system: PC3 cells; assay: Transwell migration assay in PC3 cells; type: cell-based, human
Protocol: (§1) Human prostate cancer cell lines (DU145 and PC3) were obtained from American Type Culture Collection (ATCC) (Rockville, MD). DU145 and PC3 are androgen independent cell lines, derived from brain and bone metastatic sites, respectively. They were maintained in Minimum Essential Medium, supplemented with 5% FBS, in a 5% CO2 environment at 37° C. E006AA cells are derived from localized prostate cancer in a patient. These cells were maintained in Dulbecco's Modified Eagle Medium, supplemented with 5% FBS, in a 5% CO2 environment at 37° C.
For biological assays, the compounds were dissolved in DMSO at a starting concentration of 0.05 mM (compound 12) and 0.1 mM (compounds 9a-b, 13 and 14) and then diluted in culture media to the final concentrations used for the assays.
(§2) In vitro cell migration and invasion assays were conducted using 24-well transwell inserts (8 μm). The transwell inserts were coated with […] of rat tail collagen for migration assays, and with 50 μl of a 1:4 Matrigel/Coating buffer solution for invasion assays. Cells were suspended at the appropriate density in appropriate media and treated with the inhibitors, at specific concentrations. For migration assays, EGF was used as a chemoattractant (10 ng/ml) for PC3, DU145, E006AA and SKOV3 cells; 10% FBS was used for MCF7 cells. The plates were incubated at 37° C. for 5 hours (DU145, PC3 and SKOV3), 24 hours (E006AA) or 48 hours (MCF7) for migration assays, and 48 hours for invasion assays. After fixation, the cells were stained with 3 ng/ml of DAPI and images of five non-overlapping fields were captured using Axiovert 200M, Carl Zeiss (Thornwood, NY) microscope. The number of stained nuclei were determined with automatic counting using image analysis software (ZEN 2012; Carl Zeiss). Results were expressed as migration or invasion index defined as: the average number of cells per field for test substance/the average number of cells per field for the medium control.

[4] = system: PC3 cells; assay: Transwell migration assay in PC3 cells; type: cell-based, human; settings: absence of EGF stimulus
[5] = system: DU145 cells; assay: Transwell migration assay in DU145 cells; type: cell-based, human; settings: compound 10 μM
Protocol: as §1
as §2, with “The plates were incubated at 37° C. for 5 hours (DU145, PC3 and SKOV3), 24 hours (E006AA) or 48 hours (MCF7) for migration assays, and 48 hours for invasion assays. After fixation, the cells were stained with 3 ng/ml of DAPI and images of five non-overlapping fields were captured using Axiovert 200M, Carl Zeiss (Thornwood, NY) microscope.” left out

[6] = system: E006AA cells; assay: Transwell migration assay in E006AA cells; type: cell-based, human; settings: compound 10 μM
Protocol: as §1
as §2, with “The plates were incubated at 37° C. for 5 hours (DU145, PC3 and SKOV3), 24 hours (E006AA) or 48 hours (MCF7) for migration assays, and 48 hours for invasion assays. After fixation, the cells were stained with 3 ng/ml of DAPI and images of five non-overlapping fields were captured using Axiovert 200M, Carl Zeiss (Thornwood, NY) microscope.” left out

[7] = molecular target: T1, Gαi2 (Homo sapiens, UniProt P04899); assay: Immunoprecipitation of active Gαi and Western blot with anti-Gαi2 antibody in PC3 cells; type: cell-based; settings: for activation of Gαi2 (conversion from GDP- to GTP-state): stimulus not given
T1 construct: endogenous in cells; host or cells: PC3 cells
T1 sequence (P04899 whole entry): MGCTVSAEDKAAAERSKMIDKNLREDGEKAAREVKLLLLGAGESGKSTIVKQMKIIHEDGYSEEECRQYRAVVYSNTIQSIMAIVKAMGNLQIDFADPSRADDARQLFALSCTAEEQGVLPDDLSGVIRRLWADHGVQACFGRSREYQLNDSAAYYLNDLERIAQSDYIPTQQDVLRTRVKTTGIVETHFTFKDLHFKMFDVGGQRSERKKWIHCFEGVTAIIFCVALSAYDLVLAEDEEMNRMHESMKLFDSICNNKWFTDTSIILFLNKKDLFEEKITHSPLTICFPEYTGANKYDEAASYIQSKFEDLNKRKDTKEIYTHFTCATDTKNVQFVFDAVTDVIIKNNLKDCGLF
Protocol: PC3 cells (3×10^6 cell/dish) were incubated with or without inhibitor compound 14 (10 μM) for 30 minutes and then treated with EGF (10 ng/ml) or oxytocin (200 nmol/L) for additional 30 minutes. Cells were lysed in ice-cold cell lysis buffer (Cell Signaling Technology) and snap-frozen in liquid nitrogen. Total cell lysates, containing approximately 1000 μg of proteins, were used for immunoprecipitation. The lysates were incubated with 1 μg of anti-active Gαi antibody, overnight at 4° C. Immunocomplexes were collected by centrifugation after incubation with protein A/G-Sepharose beads for 48 h (Santa Cruz Biotechnology) and were analyzed by Western blot analysis with specific anti-Gαi2 antibody (Abcam).
Western blot analyses were performed. Briefly, protein samples (30-35 μg proteins) were separated on 10% SDS-PAGE gels and transferred to polyvinylidene difluoride (PVDF) membranes (Millipore Corp., Bedford, Massachusetts). After blocking, the membranes were incubated with several primary antibodies, at appropriate dilutions (1:500 for Giα2; 1:3000 for α-tubulin) overnight at 4° C. After washing, the blots were incubated with appropriate secondary antibodies and developed in ECL mixture, using Syngene PXi Imaging System, according to the manufacture's manual. α-tubulin was used as loading control.

[8] = system: SKOV3 cells; assay: Transwell migration assay in SKOV3 cells; type: cell-based, human; settings: compound 10 μM, EGF 10 ng/ml, 5 hours
Protocol: (§3) Human breast adenocarcinoma cell line MCF7 and human ovarian adenocarcinoma cell line SKOV3 were obtained from American Type Culture Collection (ATCC) (Rockville, MD) and maintained in Dulbecco's Modified Eagle Medium, supplemented with 5% FBS, in a 5% CO2 environment at 37° C.
as §2, with “After fixation, the cells were stained with 3 ng/ml of DAPI and images of five non-overlapping fields were captured using Axiovert 200M, Carl Zeiss (Thornwood, NY) microscope.” left out

[9] = system: MCF7 cells; assay: Transwell migration assay in MCF7 cells; type: cell-based, human; settings: compound 10 μM, 10% FBS, 48 hours
Protocol: as §3
as §2, with “After fixation, the cells were stained with 3 ng/ml of DAPI and images of five non-overlapping fields were captured using Axiovert 200M, Carl Zeiss (Thornwood, NY) microscope.” left out

[10] = system: PC3 cells; assay: Transwell (Matrigel) invasion assay in PC3 cells; type: cell-based, human; settings: compound 10 μM, 48 hours
Protocol: as §2

[11] = system: DU145-Gαi2-Q205L cells; assay: Transwell migration assay in DU145 cells overexpressing constitutively active Gαi2 (Gαi2-Q205L); type: cell-based, human
Protocol: DU145 cells were seeded in 6-well plates at a density of 2.0×10^5 cells per well and transfected with pcDNA3.1-EV and pcDNA3.1-Gαi2-Q205L, using ViaFect™ transfection reagent, according to the manufacturer's protocol. Briefly, media with no antibiotics (200 μl/well) containing 2 μg of plasmids DNA were mixed with the transfection reagent (6 μl/well) and, after 20 minutes, the mixtures were added drop by drop on the cells and the cells were cultured for 48 hours. Then the cells were harvested and used for several assays.
as §2

[12] = compound 10 μM, EGF 10 ng/ml, 5 hours
[13] = compound 50 μM, in presence of EGF
[14] = compound 100 μM, in presence of EGF

Row | levels of active Gαi2 after stimulation with OXT ([7]; PC3 cells, OXT 200 nmol/L 30 minutes, compound 14 at 10 μM) | SMILES | cell viability ([1]; compound 50 μM) | cell viability ([1]; compound 100 μM) | cell viability [2] | migratory capability of PC3 cells (migration index) [3, 12] | migratory capability of PC3 cells (migration index) [3, 13] | migratory capability of PC3 cells (migration index) [3, 14] | migratory capability of PC3 cells (migration index) ([4]; compound 50 μM) | migratory capability of PC3 cells (migration index) ([4]; compound 100 μM) | EGF-induced migration of DU145 cells [5] | EGF-induced migration of E006AA cells [6] | activation of Gαi2 (conversion from GDP- to GTP-state) [7] | migration of SKOV3 cells [8] | migration of MCF7 cells [9] | invasive capability of PC3 cells (invasion index) ([10]; in response to EGF 10 ng/ml) | invasive capability of PC3 cells (invasion index) ([10]; in response to FBS (5%)) | EGF-stimulated cell migration of DU145-Gαi2-Q205L cells ([11]; compound 10 μM, EGF 10 ng/ml) | basal cell migration of DU145-Gαi2-Q205L cells ([11]; compound 10 μM, basal) | migration of DU145-Gαi2-Q205L cells ([11]; stimulus and concentration not stated at the place (FIG. 5B))
1 | – | C/C(=N\c1ccc(O)cc1)c1sc2ccccc2c1O [Compound 12, (E)-2-(1-((4-hydroxyphenyl)imino)ethyl)benzo[b]thiophen-3-ol, reference compound] | cytotoxic | cytotoxic | had no effect on cell viability | had no effect on the migration | caused a reduction in the migratory capability | caused a reduction in the migratory capability | caused a reduction in the migratory capability | caused a reduction in the migratory capability | – | – | – | – | – | – | – | – | – | –
2 | – | C/C(=N\c1ccc(O)cc1)c1cc2ccccc2s1 [Compound 13, (E)-4-((1-(benzo[b]thiophen-2-yl)ethylidene)amino)phenol] | cytotoxic | cytotoxic | had no effect on cell viability; also recorded: did not affect cell viability | significantly decreased EGF-induced migratory capability; also recorded: significantly reduced the migratory capability | reduced the migratory capability | reduced the migratory capability | – | – | reduced the EGF-induced migration | reduced the EGF-induced migration | impaired activation of Gαi2 | – | – | – | – | – | – | –
3 | the levels of active Gαi2 were reduced | C/C(=N\c1ccc(O)cc1)c1cc2ccccc2n1C [Compound 14, (E)-4-((1-(1-methyl-1H-indol-2-yl)ethylidene)amino)phenol] | cytotoxic | cytotoxic | had no effect on cell viability; also recorded: did not affect cell viability | significantly decreased EGF-induced migratory capability; also recorded: significantly reduced the migratory capability | reduced the migratory capability | reduced the migratory capability | – | – | reduced the EGF-induced migration | reduced the EGF-induced migration | reduced activation of Gαi2; also recorded: impaired activation of Gαi2 | impaired the migratory capability; also recorded: significantly reduced migration | impaired the migratory capability; also recorded: significantly reduced migration | significantly reduced; also recorded: inhibited | significantly reduced | attenuation | attenuation | significantly reduced migration
